Results as given in patent US20140288071A1, “INHIBITORS OF NOTUM […] AND METHODS OF THEIR USE” (priority 2011, published 2014).

Legend:
[1] = target: T1, human notum pectinacetyltransferase (Homo sapiens, UniProt Q6P988); test: Binding assay (OPTS esterase substrate, fluorimetric); assay type: biochemical; details: OPTS substrate 5 μM
T1 construct: made in house; conditioned medium used
T1 sequence (Q6P988 20-496): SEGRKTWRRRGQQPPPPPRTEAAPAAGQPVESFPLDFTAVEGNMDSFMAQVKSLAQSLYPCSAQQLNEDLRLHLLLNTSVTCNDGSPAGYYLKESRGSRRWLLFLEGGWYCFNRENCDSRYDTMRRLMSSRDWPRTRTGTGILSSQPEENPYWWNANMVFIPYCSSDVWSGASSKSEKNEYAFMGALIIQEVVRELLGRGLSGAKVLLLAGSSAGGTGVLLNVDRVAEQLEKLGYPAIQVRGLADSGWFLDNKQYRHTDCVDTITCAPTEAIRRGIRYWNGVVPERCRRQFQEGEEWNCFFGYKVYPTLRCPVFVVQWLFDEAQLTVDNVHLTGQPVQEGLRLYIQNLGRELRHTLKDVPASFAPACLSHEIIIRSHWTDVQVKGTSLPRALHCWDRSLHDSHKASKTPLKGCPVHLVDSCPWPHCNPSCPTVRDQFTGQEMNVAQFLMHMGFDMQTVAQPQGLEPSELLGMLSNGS
Method: Plasmid containing human notum pectinacetyltransferase in pcDNA3.1(+) vector was transfected into HEK293 cells and clones were selecting by growing in presence of 400 ug/mL of G418. Condition media from these cells was used for the assay.

[2] = target: T1, human notum pectinacetyltransferase; test: Reporter assay (CellSensor LEF/TCF-bla FreeStyle 293F cells, Wnt3a and notum conditioned media); assay type: cell-based
Method: Plasmid containing human notum pectinacetyltransferase in pcDNA3.1(+) vector was transfected into HEK293 cells and clones were selecting by growing in presence of 400 ug/mL of G418. […] L cells overexpressing and secreting Wnt3a into the conditioned media were purchased from ATCC.
The assay protocol was as follows. […] The cell growth medium consisted of DMEM with 10% Dialyzed FBS, 5 μg/ml Blasticidin (Invitrogen, R210-01), 0.1 mM NEAA, 25 mM HEPES and 1×GPS. Cells were then trypsinized by first rinsing with PBS, followed by addition of 5 mL of trypsin and incubation of plates at room temperature for two minutes. A total of 10 mL of assay media (Opti-MEM, plus 0.5% dialyzed FBS, 0.1 mM NEAA, 1 mM sodium pyruvate, 10 mM HEPES, 1×GPS) was then added per 15 cm plate. Cells were counted and suspended at 0.75 million cells per mL. […] After incubation of cells at 37° C. for 3 hours, 10 μL of 30 mM LiCl in assay medium was added per well, followed by incubation at 37° C. for another 3 hours. […] Ten μL of the Wnt3a/notum pentinacetyltransferase mixture was then transferred from Greiner plates to each well of the 384-well plates containing the CellSensor cells. After incubation of cells overnight at 37° C., reactions were developed by addition of […] of 1×CCF4 (Invitrogen, Catalogue number K1085) to each well, covering the entire 384-well plate, and gentle rocking in the dark at room temperature for 3 hours.

**Q.** “2-(7-cyclopropyl-6-(trifluoromethyl)thieno[3,2-d]pyrimidin-4-yl)thio)acetate” was tested. Which IC50 [1] did it give?
**A.** < 0.025 µM

**Q.** What about the EC50 [2] of the same molecule?
**A.** < 1 µM

**Q.** For `Cc1sc2ncnc(SCC(=O)N3CCC(C(N)=O)CC3)c2c1C` [1-(2-((5,6-dimethylthieno[2,3-d]pyrimidin-4-yl)thio)acetyl)piperidine-4-carboxamide], which IC50 [1] is on record?
**A.** < 0.25 µM

**Q.** For `COc1cc2c(cc1OC)CN(C(=O)CSc1ncnc3sc(C)c(C)c13)C2` [1-(5,6-dimethoxyisoindolin-2-yl)-2-((5,6-dimethylthieno[2,3-d]pyrimidin-4-yl)thio)ethanone], which IC50 [1] is on record?
**A.** < 0.025 µM

**Q.** How did the EC50 [2] turn out when `Cc1sc2ncnc(SCC(=O)N(C)CC(=O)O)c2c1Cl` [2-(2-((5-chloro-6-methylthieno[2,3-d]pyrimidin-4-yl)thio)-N-methylacetamido)acetic acid] was run?
**A.** < 1 µM

**Q.** How did the IC50 [1] turn out when `O=C(O)CSc1ncnc2c(C3CC3)c(C(F)(F)F)sc12` [2-(7-cyclopropyl-6-(trifluoromethyl)thieno[3,2-d]pyrimidin-4-yl)thio)acetic acid] was run?
**A.** < 0.025 µM

**Q.** And the EC50 [2]?
**A.** < 1 µM

**Q.** How did the EC50 [2] turn out when `Cc1sc2ccnc(SCC(=O)O)c2c1Cl` [2-((3-chloro-2-methylthieno[3,2-c]pyridin-4-yl)thio)acetic acid] was run?
**A.** < 5 µM

**Q.** For `Cc1sc2ncnc(SCC(=O)N3Cc4ccccc4C3)c2c1C` [2-((5,6-dimethylthieno[2,3-d]pyrimidin-4-yl)thio)-1-(isoindolin-2-yl)ethanone], which IC50 [1] is on record?
**A.** < 0.025 µM

**Q.** And the EC50 [2]?
**A.** < 10 µM

**Q.** For `Cc1sc2ncnc(SCC(=O)Nc3ccccc3F)c2c1C` [2-((5,6-dimethylthieno[2,3-d]pyrimidin-4-yl)thio)-N-(2-fluorophenyl)acetamide], which IC50 [1] is on record?
**A.** < 0.025 µM

**Q.** How did the IC50 [1] turn out when `Cc1cc(NC(=O)CSc2ncnc3sc(C)c(C)c23)no1` [2-((5,6-dimethylthieno[2,3-d]pyrimidin-4-yl)thio)-N-(5-methylisoxazol-3-yl)acetamide] was run?
**A.** < 0.025 µM

**Q.** And the EC50 [2]?
**A.** < 1 µM

**Q.** `Cc1ccc(S(=O)(=O)NC(=O)CSc2ncnc3sc(C)c(C)c23)nc1` [2-((5,6-dimethylthieno[2,3-d]pyrimidin-4-yl)thio)-N-((5-methylpyridin-2-yl)sulfonyl)acetamide] was tested. Which IC50 [1] did it give?
**A.** < 0.1 µM

**Q.** `Cc1sc2ncnc(SCC(=O)NOC3CCCCO3)c2c1C` (centres unmarked) [2-((5,6-dimethylthieno[2,3-d]pyrimidin-4-yl)thio)-N-((tetrahydro-2H-pyran-2-yl)oxy)acetamide] was tested. Which IC50 [1] did it give?
**A.** < 0.025 µM

**Q.** And the EC50 [2]?
**A.** < 1 µM

**Q.** How did the IC50 [1] turn out when `CCS(=O)(=O)NC(=O)CSc1ncnc2sc(C)c(C)c12` [2-((5,6-dimethylthieno[2,3-d]pyrimidin-4-yl)thio)-N-(ethylsulfonyl)acetamide] was run?
**A.** < 0.025 µM

**Q.** How did the IC50 [1] turn out when `Cc1sc2ncnc(SCC(=O)NCc3ccco3)c2c1C` [2-((5,6-dimethylthieno[2,3-d]pyrimidin-4-yl)thio)-N-(furan-2-ylmethyl)acetamide] was run?
**A.** < 0.025 µM

**Q.** `Cc1sc2ncnc(SCC(=O)NCc3cccs3)c2c1C` [2-((5,6-dimethylthieno[2,3-d]pyrimidin-4-yl)thio)-N-(thiophen-2-ylmethyl)acetamide] was tested. Which IC50 [1] did it give?
**A.** < 0.1 µM

**Q.** `Cc1sc2ncnc(SCC(=O)NO)c2c1C` [2-((5,6-dimethylthieno[2,3-d]pyrimidin-4-yl)thio)-N-hydroxyacetamide] was tested. Which IC50 [1] did it give?
**A.** < 0.025 µM

**Q.** What about the EC50 [2] of the same molecule?
**A.** < 1 µM

**Q.** Which results are given for `CON(C)C(=O)CSc1ncnc2sc(C)c(C)c12` [2-((5,6-dimethylthieno[2,3-d]pyrimidin-4-yl)thio)-N-methoxy-N-methylacetamide]?
**A.** IC50 [1]: < 0.025 µM; EC50 [2]: < 1 µM

**Q.** With `CNC(=O)CSc1ncnc2sc(C)c(C)c12` [2-((5,6-dimethylthieno[2,3-d]pyrimidin-4-yl)thio)-N-methylacetamide] as the molecule, how does the IC50 [1] read?
**A.** < 0.025 µM

**Q.** And the EC50 [2]?
**A.** < 1 µM

**Q.** Which IC50 [1] does the source give for `Cc1sc2ncnc(SCC(N)=O)c2c1C` [2-((5,6-dimethylthieno[2,3-d]pyrimidin-4-yl)thio)acetamide] here?
**A.** < 0.025 µM

**Q.** What about the EC50 [2] of the same molecule?
**A.** < 1 µM

**Q.** `Cc1sc2ncnc(SCC(=O)NC(C)CO)c2c1Cl` (centres unmarked) [2-((5-chloro-6-methylthieno[2,3-d]pyrimidin-4-yl)thio)-N-(1-hydroxypropan-2-yl)acetamide] was tested. Which EC50 [2] did it give?
**A.** < 5 µM

**Q.** How did the IC50 [1] turn out when `Cc1csc(CCNC(=O)CSc2ncnc3sc(C)c(Cl)c23)n1` [2-((5-chloro-6-methylthieno[2,3-d]pyrimidin-4-yl)thio)-N-(2-(4-methylthiazol-2-yl)ethyl)acetamide] was run?
**A.** < 0.025 µM

**Q.** `Cc1sc2ncnc(SCC(=O)NS(C)(=O)=O)c2c1Cl` [2-((5-chloro-6-methylthieno[2,3-d]pyrimidin-4-yl)thio)-N-(methylsulfonyl)acetamide] was tested. Which EC50 [2] did it give?
**A.** < 1 µM

**Q.** `Cc1sc2ncnc(SCC(=O)NCc3ccncc3)c2c1Cl` [2-((5-chloro-6-methylthieno[2,3-d]pyrimidin-4-yl)thio)-N-(pyridin-4-ylmethyl)acetamide] was tested. Which IC50 [1] did it give?
**A.** < 0.025 µM

**Q.** With `Cc1sc2ncnc(SCC(=O)NCc3cccs3)c2c1Cl` [2-((5-chloro-6-methylthieno[2,3-d]pyrimidin-4-yl)thio)-N-(thiophen-2-ylmethyl)acetamide] as the molecule, how does the IC50 [1] read?
**A.** < 0.025 µM

**Q.** With `CCCNC(=O)CSc1ncnc2sc(C)c(Cl)c12` [2-((5-chloro-6-methylthieno[2,3-d]pyrimidin-4-yl)thio)-N-propylacetamide] as the molecule, how does the IC50 [1] read?
**A.** < 0.025 µM

**Q.** Which IC50 [1] does the source give for `Cc1csc2ncnc(SCC(=O)O)c12` [2-((5-methylthieno[2,3-d]pyrimidin-4-yl)thio)acetic acid] here?
**A.** < 0.1 µM

**Q.** For `Cc1sc2c(SCC(=O)O)ncnc2c1C` [2-((6,7-dimethylthieno[3,2-d]pyrimidin-4-yl)thio)acetic acid], which IC50 [1] is on record?
**A.** < 0.025 µM

**Q.** How did the IC50 [1] turn out when `Cc1c(Br)sc2c(SCC(=O)O)ncnc12` [2-((6-bromo-7-methylthieno[3,2-d]pyrimidin-4-yl)thio)acetic acid] was run?
**A.** < 0.025 µM

**Q.** How did the IC50 [1] turn out when `Cc1c(Cl)sc2ncnc(SCC(=O)O)c12` [2-((6-chloro-5-methylthieno[2,3-d]pyrimidin-4-yl)thio)acetic acid] was run?
**A.** < 0.025 µM

**Q.** With `Cc1c(Cl)sc2c(SCC(=O)NCCN3CCCCC3)ncnc12` [2-((6-chloro-7-methylthieno[3,2-d]pyrimidin-4-yl)thio)-N-(2-(piperidin-1-yl)ethyl)acetamide] as the molecule, how does the EC50 [2] read?
**A.** < 1 µM

**Q.** How did the EC50 [2] turn out when `Cc1c(Cl)sc2c(SCC(=O)NCc3cccs3)ncnc12` [2-((6-chloro-7-methylthieno[3,2-d]pyrimidin-4-yl)thio)-N-(thiophen-2-ylmethyl)acetamide] was run?
**A.** < 1 µM

**Q.** Which EC50 [2] does the source give for `Cc1c(C#N)sc2c(SCC(=O)O)ncnc12` [2-((6-cyano-7-methylthieno[3,2-d]pyrimidin-4-yl)thio)acetic acid] here?
**A.** < 1 µM

**Q.** With `Cc1c(C2CC2)sc2ncnc(SCC(=O)O)c12` [2-((6-cyclopropyl-5-methylthieno[2,3-d]pyrimidin-4-yl)thio)acetic acid] as the molecule, how does the EC50 [2] read?
**A.** < 5 µM

**Q.** Which IC50 [1] does the source give for `CCc1sc2ncnc(SCC(=O)O)c2c1C` [2-((6-ethyl-5-methylthieno[2,3-d]pyrimidin-4-yl)thio)acetic acid] here?
**A.** < 0.025 µM

**Q.** With `Cc1c(C(C)C)sc2ncnc(SCC(=O)O)c12` [2-((6-isopropyl-5-methylthieno[2,3-d]pyrimidin-4-yl)thio)acetic acid] as the molecule, how does the IC50 [1] read?
**A.** < 0.05 µM

**Q.** How did the IC50 [1] turn out when `Cc1sc2ncnc(SCC(=O)NCCc3c[nH]cn3)c2c1Cl` [N-(2-(1H-imidazol-4-yl)ethyl)-2-((5-chloro-6-methylthieno[2,3-d]pyrimidin-4-yl)thio)acetamide] was run?
**A.** < 0.025 µM

**Q.** Which IC50 [1] does the source give for `Cc1sc2ncnc(SCC(=O)Nc3n[nH]c4cccc(Cl)c34)c2c1C` [N-(4-chloro-1H-indazol-3-yl)-2-((5,6-dimethylthieno[2,3-d]pyrimidin-4-yl)thio)acetamide] here?
**A.** < 0.025 µM

**Q.** With `Cc1sc2ncnc(SCC(=O)NS(=O)(=O)C3CC3)c2c1C` [N-(cyclopropylsulfonyl)-2-((5,6-dimethylthieno[2,3-d]pyrimidin-4-yl)thio)acetamide] as the molecule, how does the IC50 [1] read?
**A.** < 0.025 µM

**Q.** Which IC50 [1] does the source give for `COC(=O)CSc1ncnc2sc(C)c(C3CC3)c12` [methyl 2-((5-cyclopropyl-6-methylthieno[2,3-d]pyrimidin-4-yl)thio)acetate] here?
**A.** < 0.025 µM

**Q.** `COC(=O)CSc1ncnc2c(C3CC3)c(Cl)sc12` [methyl 2-((6-chloro-7-cyclopropylthieno[3,2-d]pyrimidin-4-yl)thio)acetate] was tested. Which IC50 [1] did it give?
**A.** < 0.025 µM

**Q.** With `COC(=O)CSc1ncnc2c(C)c(C#N)sc12` [methyl 2-((6-cyano-7-methylthieno[3,2-d]pyrimidin-4-yl)thio)acetate] as the molecule, how does the EC50 [2] read?
**A.** < 1 µM

**Q.** How did the IC50 [1] turn out when `COC(=O)CSc1ncnc2sc(C3CC3)c(C)c12` [methyl 2-((6-cyclopropyl-5-methylthieno[2,3-d]pyrimidin-4-yl)thio)acetate] was run?
**A.** < 0.025 µM
